Laboratory results from US20130237415A1 (priority 2010, published 2013).
Read-outs that look alike come from different tables or passages of the source.

Columns and labels:
Fusarium graminearum [1] = assay type: in vivo; settings: for % FHB Control* / FHB Area / FHB Area (% of Control) / Observed % FHB Efficacy: spring wheat; for % FHB Control*: Group A, GS 59, 100 gai/ha, relative to inoculated untreated check; for FHB Area / FHB Area (% of Control) / Observed % FHB Efficacy: Group B
Fusarium graminearum [2] = assay type: in vivo; settings: for % DON Reduction: spring wheat, Group A, GS 59, 100 gai/ha, relative to inoculated untreated check; for DON Levels (% of Control) / DON Levels (ppm) / Observed % DON Efficacy: harvested spring wheat grain, Group B
Fusarium verticillioides = settings: for F. verticilliodes disease severity (in words): safeners alone at 100 gai/ha
Description: Corn seeds of the Garst hybrid 86C73-3000GT were planted and grown in the greenhouse at 22° C., 12 hours of light/12 hours of dark using an experiment based on a randomized complete block (RCB) design with ten replicates.
Safeners tested were: N-(2-methoxybenzoyl)-4-[(methylaminocarbonyl)amino]benzenesulfonamide, Cyprosulfamide, and Isoxadifen, alone and in combination with Prothioconazole fungicide, were applied at the beginning of tasselling stage (GS 51-55) at rates of 100 gai/ha. Prothioconazole was tested alone at rates of 50, 100, and 200 gai/ha. Prothioconazole was tested in combination with safeners at 100 gai/ha. An additional treatment of Prothioconazole at 50 gai/ha+Isoxadifen at 100 gai/ha was included. All treatments were applied a water volume of 220 L/ha using a track sprayer. The adjuvant X-77 was included in each treatment of maize at a rate of 0.125% v/v. Untreated non-innoculated and inoculated control treatments were included within the treatment list.
Maize was inoculated with Fusarium verticillioides at flowering/silking stage (GS 61-65) by spraying conidia of F. verticillioides on the emerged silk at 1.0×10^6 conidia/mL. Treated plants where then incubated in the dark at 22° C. for 3 days in the dark at 100% R.H., followed by 6 days at 65% R.H. at 12 hour light/dark intervals at 22° C.
Maize was harvested at maturity, the weight of corn seeds per ear was recorded. Fusarium disease severity per maize ear was determined by plating a ten seeds per ear on Fusarium selective agar media. Seeds were surface sterilized with 5% sodium hypochloride for 1 minute followed by washing with sterile water for 1 minute, prior to plating on selective media. After plating, seeds were incubated in the dark at 15° C. for 10 days.

Row | Compound | % FHB Control* (Fusarium graminearum [1]) | % DON Reduction (Fusarium graminearum [2]) | FHB Area (Fusarium graminearum [1]; GS 65/69, 50 gai/ha) | FHB Area (% of Control) (Fusarium graminearum [1]; GS 65/69, 50 gai/ha) | Observed % FHB Efficacy (Fusarium graminearum [1]; GS 65/69, 50 gai/ha) | FHB Area (Fusarium graminearum [1]; GS 65/69, 100 gai/ha) | FHB Area (% of Control) (Fusarium graminearum [1]; GS 65/69, 100 gai/ha) | Observed % FHB Efficacy (Fusarium graminearum [1]; GS 65/69, 100 gai/ha) | FHB Area (Fusarium graminearum [1]; GS 65/69, 200 gai/ha) | FHB Area (% of Control) (Fusarium graminearum [1]; GS 65/69, 200 gai/ha) | Observed % FHB Efficacy (Fusarium graminearum [1]; GS 65/69, 200 gai/ha) | DON Levels (% of Control) (Fusarium graminearum [2]; GS 65/69, 50 gai/ha) | DON Levels (ppm) (Fusarium graminearum [2]; GS 65/69, 50 gai/ha) | Observed % DON Efficacy (Fusarium graminearum [2]; GS 65/69, 50 gai/ha) | DON Levels (% of Control) (Fusarium graminearum [2]; GS 65/69, 100 gai/ha) | DON Levels (ppm) (Fusarium graminearum [2]; GS 65/69, 100 gai/ha) | Observed % DON Efficacy (Fusarium graminearum [2]; GS 65/69, 100 gai/ha) | DON Levels (% of Control) (Fusarium graminearum [2]; GS 65/69, 200 gai/ha) | DON Levels (ppm) (Fusarium graminearum [2]; GS 65/69, 200 gai/ha) | Observed % DON Efficacy (Fusarium graminearum [2]; GS 65/69, 200 gai/ha) | other results
1 | CCCCCC(C)OC(=O)COc1ccc(Cl)c2cccnc12 (centres unmarked) [Cloqunitocet, 1-methylhexyl[(5-chloro-8-quinolinyl)oxy]acetate] | 1% | 9% | – | – | – | – | – | – | – | – | – | – | – | – | – | – | – | – | – | – | –
2 | Prothioconazole | – | – | 28.1% | 46.3% | 53.7% | 57.5% | 94.7% | 5.3% | 7.3% | 12.0% | 88.0% | 37.6% | 10.274 ppm | 62.4% | 38.3% | 10.456 ppm | 61.7% | 15.8% | 4.322 ppm | 84.2% | Fusarium verticilliodes disease severity per maize ear (in words) (Fusarium verticillioides; treated versus untreated control maize plants): reduced disease severity
3 | O=C(O)C1=NOC(c2ccccc2)(c2ccccc2)C1 [Isoxadifen, 4,5-dihydro-5,5-diphenyl-3-isoxazolecarboxylic acid] | 0% | 17% | – | – | – | 81.3% | 133.9% | 0.0% | – | – | – | – | – | – | 106.6% | 29.098 ppm | 0.0% | – | – | – | effectiveness of treatment for maize (in words) (Fusarium verticillioides; maize): Particularly effective; F. verticilliodes disease severity (in words) (Fusarium verticillioides; maize): greatly reduced; effectiveness of treatment for wheat (in words) (Fusarium graminearum [1]; wheat): Particularly effective
4 | CNC(=O)Nc1ccc(S(=O)(=O)NC(=O)c2ccccc2OC)cc1 | 7% | 0% | – | – | – | – | – | – | – | – | – | – | – | – | – | – | – | – | – | – | F. verticilliodes disease severity (in words) (Fusarium verticillioides; maize): greatly reduced
5 | CON(C(=O)c1cn(C)nc1C(F)F)C(C)Cc1c(Cl)cc(Cl)cc1Cl (centres unmarked) [3-difluoromethyl-1-methyl-1H-pyrazole-4-carboxylic acid methoxy-[1-methyl-2-(2,4,6-trichlorophenyl)-ethyl]-amide] | – | – | 8.3% | 13.7% | 86.3% | 7.5% | 12.4% | 87.6% | 7% | 11.5% | 88.5% | 25.9% | 7.084 ppm | 74.1% | 16.1% | 4.388 ppm | 83.9% | 11.7% | 3.187 ppm | 88.3% | –
